Experimental data: ChEMBL document CHEMBL1201862, “PubChem BioAssay data set” (2004)
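Where inhibition never reached the appropriate level, the endpoint shown equals the highest concentration tested. Otherwise, values were interpolated linearly from a five-concentration, 48-hour dose response in 96-well plates. At the GI50, growth is halved.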 Calls of active or inactive are those of the source. Rule as the data show it: active = GI50 up to about 1.1 µM and inactive = higher.

What was measured:
Experiment in all cases: DTP human tumour cell line panel, 48 h
UACC-62 = tested on: UACC-62
OVCAR-5 = tested on: OVCAR-5
SF-539 = tested on: SF-539
U-251 = tested on: U-251
IGROV-1 = tested on: IGROV-1
UO-31 = tested on: UO-31
MDA-N = tested on: MDA-N
NCI-H522 = tested on: NCI-H522
SK-OV-3 = tested on: SK-OV-3
SNB-75 = tested on: SNB-75
SF-268 = tested on: SF-268
RXF 393 = tested on: RXF 393
MDA-MB-231 = tested on: MDA-MB-231
BT-549 = tested on: BT-549
T47D = tested on: T47D
TK-10 = tested on: TK-10
M14 = tested on: M14
SK-MEL-28 = tested on: SK-MEL-28
SR = tested on: SR
HT-29 = tested on: HT-29

Row | SMILES | GI50 (UACC-62) | GI50 (OVCAR-5) | GI50 (SF-539) | GI50 (U-251) | GI50 (IGROV-1) | GI50 (UO-31) | GI50 (MDA-N) | GI50 (NCI-H522) | GI50 (SK-OV-3) | GI50 (SNB-75) | GI50 (SF-268) | GI50 (RXF 393) | GI50 (MDA-MB-231) | GI50 (BT-549) | GI50 (T47D) | GI50 (TK-10) | GI50 (M14) | GI50 (SK-MEL-28) | GI50 (SR) | GI50 (HT-29)
1 | O=C(c1cscc1CCc1ccccc1)c1cscc1CCc1ccccc1 | > 100 µM (inactive) | > 100 µM (inactive) | > 100 µM (inactive) | > 100 µM (inactive) | 31.6 µM (inactive) | > 100 µM (inactive) | > 100 µM (inactive) | > 100 µM (inactive) | > 100 µM (inactive) | > 100 µM (inactive) | > 100 µM (inactive) | > 100 µM (inactive) | > 100 µM (inactive) | > 100 µM (inactive) | 11.6 µM (inactive) | > 100 µM (inactive) | > 100 µM (inactive) | > 100 µM (inactive) | 80 µM (inactive) | 
2 | Cc1cc(C)c2c(=O)cc(-c3ccccc3)[nH]c2c1 | 1.6 µM (inactive) | 10.4 µM (inactive) | 2.31 µM (inactive) | 3.25 µM (inactive) | 2.86 µM (inactive) | 9.46 µM (inactive) | 0.284 µM (active) | 0.755 µM (active) | 2.52 µM (inactive) | 3.16 µM (inactive) | 7.82 µM (inactive) | 1.61 µM (inactive) | 8.22 µM (inactive) | 7.45 µM (inactive) | 12.5 µM (inactive) | 7.05 µM (inactive) | 3.37 µM (inactive) | 2.52 µM (inactive) | 2.01 µM (inactive) | 1.17 µM (inactive)
3 | O=c1oc2ccccc2cc1-c1nc2ccccc2c(=O)[nH]1 | > 100 µM (inactive) | > 100 µM (inactive) | > 100 µM (inactive) | 50.4 µM (inactive) | > 100 µM (inactive) | > 100 µM (inactive) | > 100 µM (inactive) | > 100 µM (inactive) | > 100 µM (inactive) | 69.3 µM (inactive) | > 100 µM (inactive) | > 100 µM (inactive) | > 100 µM (inactive) | 77.8 µM (inactive) | > 100 µM (inactive) | > 100 µM (inactive) | > 100 µM (inactive) | > 100 µM (inactive) | > 100 µM (inactive) | > 100 µM (inactive)
4 | CC[C@@]1(O)C(=O)OCc2c1cc1n(c2=O)Cc2c-1nc1ccccc1c2/C=N\NC(=O)C(N)CC(C)C (stereo partly specified) | < 0.01 µM (active) | 0.726 µM (active) | < 0.01 µM (active) | < 0.01 µM (active) | 0.233 µM (active) | < 0.0106 µM (active) | 0.171 µM (active) | < 0.0175 µM (active) | < 0.0212 µM (active) | < 0.01 µM (active) | < 0.01 µM (active) | < 0.0143 µM (active) | 1.25 µM (inactive) | 0.0382 µM (active) | < 0.01 µM (active) | 3.12 µM (inactive) | < 0.0128 µM (active) | 0.605 µM (active) | < 0.01 µM (active) | 0.228 µM (active)
5 | CO/N=C1/C(n2[nH]c(=O)n(-c3ccccc3)c2=O)C2C=CC1n1c(=O)n(-c3ccccc3)c(=O)n12 (stereo unspecified) | > 100 µM (inactive) | > 100 µM (inactive) | > 100 µM (inactive) | > 100 µM (inactive) | > 100 µM (inactive) | > 100 µM (inactive) | > 100 µM (inactive) | > 100 µM (inactive) | > 100 µM (inactive) | > 100 µM (inactive) | > 100 µM (inactive) | > 100 µM (inactive) | > 100 µM (inactive) | > 100 µM (inactive) | > 100 µM (inactive) | > 100 µM (inactive) | > 100 µM (inactive) | > 100 µM (inactive) | > 100 µM (inactive) | > 100 µM (inactive)
6 | CC(CC(=O)CO[C@H]1[C@H](O)[C@@H](O)[C@@H](O)[C@@H]2NC(=O)c3c(cc4c(c3O)OCO4)[C@H]21)OC1OC(CO)C(O)C(O)C1O (stereo partly specified) | 0.733 µM (active) | 1.26 µM (inactive) | 0.419 µM (active) | 0.239 µM (active) | 0.547 µM (active) | 1.38 µM (inactive) | 0.508 µM (active) | 0.311 µM (active) | 0.469 µM (active) | 0.207 µM (active) | 0.367 µM (active) | 0.269 µM (active) | 0.355 µM (active) | 0.495 µM (active) | 0.203 µM (active) | 0.408 µM (active) | 0.425 µM (active) | 0.56 µM (active) | 0.325 µM (active) | 0.452 µM (active)
7 | COc1ccc(N2CN3OC(=O)N(c4ccc(OC)cc4)[C@@]3(c3ccccc3)C2)cc1 | 13.6 µM (inactive) | 54.6 µM (inactive) | 17 µM (inactive) | 11.9 µM (inactive) | 20.7 µM (inactive) | 32.9 µM (inactive) | 3.29 µM (inactive) | 10.5 µM (inactive) | 20.8 µM (inactive) | 14.4 µM (inactive) | 73.6 µM (inactive) | 19.9 µM (inactive) | 10 µM (inactive) | 21.5 µM (inactive) | 14.3 µM (inactive) | 30.8 µM (inactive) | 34.4 µM (inactive) | 34.5 µM (inactive) | 2.79 µM (inactive) | 6.49 µM (inactive)
8 | COc1ncc(/C=C2\OC(=O)c3ccccc32)c(OC)n1 |  | > 100 µM (inactive) | 12.7 µM (inactive) | 13.6 µM (inactive) | 4.48 µM (inactive) | 12.9 µM (inactive) | 50 µM (inactive) | 26.1 µM (inactive) |  | 6.44 µM (inactive) | 32.6 µM (inactive) | 7 µM (inactive) | > 100 µM (inactive) | 0.402 µM (active) | 23.6 µM (inactive) | 16.2 µM (inactive) | 72.3 µM (inactive) | 56.1 µM (inactive) | 30.1 µM (inactive) | 64.6 µM (inactive)
9 | O=c1c2cc(Br)ccc2oc2nc3n(c(=O)c12)CCCS3 | > 100 µM (inactive) | > 100 µM (inactive) | > 100 µM (inactive) | > 100 µM (inactive) | > 100 µM (inactive) | 39.2 µM (inactive) | > 100 µM (inactive) | > 100 µM (inactive) |  | > 100 µM (inactive) | > 100 µM (inactive) | > 100 µM (inactive) | > 100 µM (inactive) | > 100 µM (inactive) | 30.1 µM (inactive) | > 100 µM (inactive) | > 100 µM (inactive) | > 100 µM (inactive) | > 100 µM (inactive) | 
10 | O=C1CCCCN1C(=O)c1ccc([N+](=O)[O-])cc1 | 37.3 µM (inactive) | > 100 µM (inactive) | > 100 µM (inactive) | > 100 µM (inactive) | > 100 µM (inactive) | > 100 µM (inactive) | 57.7 µM (inactive) | > 100 µM (inactive) |  | > 100 µM (inactive) | > 100 µM (inactive) | > 100 µM (inactive) | > 100 µM (inactive) | > 100 µM (inactive) | > 100 µM (inactive) | > 100 µM (inactive) | > 100 µM (inactive) | > 100 µM (inactive) | > 100 µM (inactive) | > 100 µM (inactive)
11 | COc1cccc(C2SC(=N)Nc3c2c(C)nn3C(=O)c2ccccc2O)c1 (stereo unspecified) | 1.76 µM (inactive) | > 6.73 µM (inactive) |  | > 2.65 µM (inactive) | > 2.11 µM (inactive) | > 10 µM (inactive) | > 2.28 µM (inactive) | > 5.41 µM (inactive) | > 7.5 µM (inactive) | 0.925 µM (active) | > 4.32 µM (inactive) | 2.14 µM (inactive) | > 4.62 µM (inactive) | > 10 µM (inactive) | > 7.03 µM (inactive) | > 2.78 µM (inactive) | > 5.47 µM (inactive) | > 10 µM (inactive) | > 3.21 µM (inactive) | > 6.17 µM (inactive)
12 | c1ccc2c(c1)N=c1cc3c(cc1N2)=NC12CCCCC1CC1=C(CCCC1)N32 (stereo unspecified) | 3.32 µM (inactive) | 5.36 µM (inactive) | 3.4 µM (inactive) | 5.16 µM (inactive) | 3.4 µM (inactive) |  | 2.21 µM (inactive) | 4.19 µM (inactive) | > 10 µM (inactive) | 2.59 µM (inactive) | 4.55 µM (inactive) | 1.39 µM (inactive) | 4.16 µM (inactive) | 2.61 µM (inactive) | 3.94 µM (inactive) | 5.02 µM (inactive) | 2.52 µM (inactive) | 3.3 µM (inactive) | 0.425 µM (active) | 3.18 µM (inactive)
13 | CN(C)CCCNC(=O)c1c(O)c2ccccc2n(C)c1=O | 64.9 µM (inactive) | 63 µM (inactive) | 78.3 µM (inactive) | 39.5 µM (inactive) | > 100 µM (inactive) | 9.27 µM (inactive) | 64.1 µM (inactive) | 61.8 µM (inactive) | > 100 µM (inactive) | 63.7 µM (inactive) | 49.8 µM (inactive) | 35.5 µM (inactive) | 86.5 µM (inactive) | 70 µM (inactive) | 71.3 µM (inactive) | 67.3 µM (inactive) |  | 74.6 µM (inactive) | 41.5 µM (inactive) | 55.6 µM (inactive)
14 | COC(=O)c1ccc2cc(O)c(O)cc2c1 | 26.2 µM (inactive) | > 88.9 µM (inactive) | 40 µM (inactive) | 29.6 µM (inactive) | 26.7 µM (inactive) | 17.4 µM (inactive) | 45 µM (inactive) | 16.1 µM (inactive) | 70.8 µM (inactive) | 90.8 µM (inactive) | 16.6 µM (inactive) | 48.2 µM (inactive) | 60.7 µM (inactive) | 21.2 µM (inactive) | 25.8 µM (inactive) | 27.9 µM (inactive) | 26.3 µM (inactive) | 46.9 µM (inactive) | 13.2 µM (inactive) | 37.4 µM (inactive)
